According to patent US10947271B2, “Antibacterial agents” (THE UNIVERSITY OF QUEENSLAND, priority 2014, dated 2021):

Experiments:
Format in all cases: cell-based
Conditions in all cases: 24 h incubation, visual reading
[1] = test system: Staphylococcus aureus MRSA ATCC 43300; assay: MIC assay, S. aureus MRSA ATCC 43300
Method in brief: (§1)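 Twofold broth microdilution in Mueller Hinton broth; compounds tested from 8 μg/ml to 0.003 μg/ml. Mid-log cultures were inoculated at 5×10e5 CFU/mL and incubated 24 h at 37° C. MIC was the lowest concentration with no visible growth.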

[2] = test system: Streptococcus pneumoniae MDR ATCC 700677; assay: MIC assay, S. pneumoniae MDR ATCC 700677
Method in brief: as §1

[3] = test system: Enterococcus faecium MDR Van A ATCC 51559; assay: MIC assay, E. faecium MDR Van A ATCC 51559
Method in brief: as §1

## CCCCCCCCCCC(=O)N[C@@H](CCCCN)C(=O)NCCNC(=O)[C@H]1NC(=O)[C@H]2NC(=O)[C@H](NC(=O)[C@@H]3NC(=O)[C@H](CC(N)=O)NC(=O)[C@H](NC(=O)[C@@H](CC(C)C)NC)[C@H](O)c4ccc(c(Cl)c4)Oc4cc3cc(c4O[C@@H]3O[C@H](CO)[C@@H](O)[C@H](O)[C@H]3O[C@H]3C[C@](C)(N)[C@H](O)[C@H](C)O3)Oc3ccc(cc3Cl)[C@H]2O)c2ccc(O)c(c2)-c2c(O)cc(O)cc21 [MCC_005163]
[1]
  Minimum Inhibitory Concentration (MIC) Staph. aureus ATCC43300: xxxxx (xxxxx = <0.01)
[2]
  Minimum Inhibitory Concentration (MIC) S. pneumoniae ATCC 700677: xxxx (xxxx = 0.01-<0.1)
[3]
  Minimum Inhibitory Concentration (MIC) E. faecium ATCC51559: x (x = >4)

## CCCCCCCCCC(=O)N[C@@H](CCCNC(=N)N)C(=O)N[C@@H](CCCNC(=N)N)C(=O)NCCCNC(=O)[C@H]1NC(=O)[C@H]2NC(=O)[C@H](NC(=O)[C@@H]3NC(=O)[C@H](CC(N)=O)NC(=O)[C@H](NC(=O)[C@@H](CC(C)C)NC)[C@H](O)c4ccc(c(Cl)c4)Oc4cc3cc(c4O[C@@H]3O[C@H](CO)[C@@H](O)[C@H](O)[C@H]3O[C@H]3C[C@](C)(N)[C@H](O)[C@H](C)O3)Oc3ccc(cc3Cl)[C@H]2O)c2ccc(O)c(c2)-c2c(O)cc(O)cc21 [MCC_005482]
[1]
  Minimum Inhibitory Concentration (MIC) Staph. aureus ATCC43300: xxxxx (xxxxx = <0.01)
[2]
  Minimum Inhibitory Concentration (MIC) S. pneumoniae ATCC 700677: xxxxx (xxxxx = <0.01)
[3]
  Minimum Inhibitory Concentration (MIC) E. faecium ATCC51559: xx (xx = 1-4)

## CCCCCCC(CCCC)C(=O)NCCCCC(NC(=O)C(CCCC)CCCCCC)C(=O)NC(CCCCN)C(=O)NC(CCCCNC(=O)C1NC(=O)C2NC(=O)C(NC(=O)C3NC(=O)C(CC(N)=O)NC(=O)C(NC(=O)C(CC(C)C)NC)C(O)c4ccc(c(Cl)c4)Oc4cc3cc(c4OC3OC(CO)C(O)C(O)C3OC3CC(C)(N)C(O)C(C)O3)Oc3ccc(cc3Cl)C2O)c2ccc(O)c(c2)-c2c(O)cc(O)cc21)C(=O)NC (stereo not drawn) [MCC_000497]
[1]
  Minimum Inhibitory Concentration (MIC) Staph. aureus ATCC43300: xxx (xxx = 0.1-<1)
[2]
  Minimum Inhibitory Concentration (MIC) S. pneumoniae ATCC 700677: xxx (xxx = 0.1-<1)
[3]
  Minimum Inhibitory Concentration (MIC) E. faecium ATCC51559: xxx (xxx = 0.1-<1)

## CCCCCCCCCCC(=O)N[C@@H](CCCCN)C(=O)N[C@@H](CCCCN)C(=O)N[C@@H](CCCCNC(=O)CNC(=O)[C@H]1NC(=O)[C@H]2NC(=O)[C@H](NC(=O)[C@@H]3NC(=O)[C@H](CC(N)=O)NC(=O)[C@H](NC(=O)[C@@H](CC(C)C)NC)[C@H](O)c4ccc(c(Cl)c4)Oc4cc3cc(c4O[C@@H]3O[C@H](CO)[C@@H](O)[C@H](O)[C@H]3O[C@H]3C[C@](C)(N)[C@H](O)[C@H](C)O3)Oc3ccc(cc3Cl)[C@H]2O)c2ccc(O)c(c2)-c2c(O)cc(O)cc21)C(=O)O [MCC_000225]
[1]
  Minimum Inhibitory Concentration (MIC) Staph. aureus ATCC43300: xxx (xxx = 0.1-<1)
[2]
  Minimum Inhibitory Concentration (MIC) S. pneumoniae ATCC 700677: xxx (xxx = 0.1-<1)
[3]
  Minimum Inhibitory Concentration (MIC) E. faecium ATCC51559: x (x = >4)

## CNC(=O)C(CCCCNC(=O)C1NC(=O)C2NC(=O)C(NC(=O)C3NC(=O)C(CC(N)=O)NC(=O)C(NC(=O)C(CC(C)C)NC)C(O)c4ccc(c(Cl)c4)Oc4cc3cc(c4OC3OC(CO)C(O)C(O)C3OC3CC(C)(N)C(O)C(C)O3)Oc3ccc(cc3Cl)C2O)c2ccc(O)c(c2)-c2c(O)cc(O)cc21)NC(=O)C(CCCCN)NC(=O)C(CCCCN)NC(=O)c1ccc(OCc2ccccc2)cc1 (stereo not drawn) [MCC_000518]
[1]
  Minimum Inhibitory Concentration (MIC) Staph. aureus ATCC43300: xxx (xxx = 0.1-<1)
[2]
  Minimum Inhibitory Concentration (MIC) S. pneumoniae ATCC 700677: xxx (xxx = 0.1-<1)
[3]
  Minimum Inhibitory Concentration (MIC) E. faecium ATCC51559: x (x = >4)

## CNC(CC(C)C)C(=O)NC1C(=O)NC(CC(N)=O)C(=O)NC2C(=O)NC3C(=O)NC(C(=O)NC(C(=O)NCCCCC(NC(=O)C(CCCCN)NC(=O)C(CCCCN)NC(=O)CNC(=O)c4ccc(Oc5ccccc5)cc4)C(=O)O)c4cc(O)cc(O)c4-c4cc3ccc4O)C(O)c3ccc(c(Cl)c3)Oc3cc2cc(c3OC2OC(CO)C(O)C(O)C2OC2CC(C)(N)C(O)C(C)O2)Oc2ccc(cc2Cl)C1O (stereo not drawn) [MCC_000381]
[1]
  Minimum Inhibitory Concentration (MIC) Staph. aureus ATCC43300: xxx (xxx = 0.1-<1)
[2]
  Minimum Inhibitory Concentration (MIC) S. pneumoniae ATCC 700677: xx (xx = 1-4)
[3]
  Minimum Inhibitory Concentration (MIC) E. faecium ATCC51559: x (x = >4)

## CCCCCCCCCCCCC(=O)N[C@@H](CCCCN)C(=O)N[C@@H](CCCCN)C(=O)N[C@@H](CCCCN)C(=O)N[C@@H](CCCCNC(=O)[C@H]1NC(=O)[C@H]2NC(=O)[C@H](NC(=O)[C@@H]3NC(=O)[C@H](CC(N)=O)NC(=O)[C@H](NC(=O)[C@@H](CC(C)C)NC)[C@H](O)c4ccc(c(Cl)c4)Oc4cc3cc(c4O[C@@H]3O[C@H](CO)[C@@H](O)[C@H](O)[C@H]3O[C@H]3C[C@](C)(N)[C@H](O)[C@H](C)O3)Oc3ccc(cc3Cl)[C@H]2O)c2ccc(O)c(c2)-c2c(O)cc(O)cc21)C(=O)O [MCC_000350]
[1]
  Minimum Inhibitory Concentration (MIC) Staph. aureus ATCC43300: xxxxx (xxxxx = <0.01)
[2]
  Minimum Inhibitory Concentration (MIC) S. pneumoniae ATCC 700677: xxxxx (xxxxx = <0.01)
[3]
  Minimum Inhibitory Concentration (MIC) E. faecium ATCC51559: xxx (xxx = 0.1-<1)

## CCCCCCC[C@H](O)CC(=O)N[C@@H](CCCCN)C(=O)N[C@@H](CCCCN)C(=O)N[C@@H](CCCCNC(=O)[C@H]1NC(=O)[C@H]2NC(=O)[C@H](NC(=O)[C@@H]3NC(=O)[C@H](CC(N)=O)NC(=O)[C@H](NC(=O)[C@@H](CC(C)C)NC)[C@H](O)c4ccc(c(Cl)c4)Oc4cc3cc(c4O[C@@H]3O[C@H](CO)[C@@H](O)[C@H](O)[C@H]3O[C@H]3C[C@](C)(N)[C@H](O)[C@H](C)O3)Oc3ccc(cc3Cl)[C@H]2O)c2ccc(O)c(c2)-c2c(O)cc(O)cc21)C(=O)O [MCC_005506]
[1]
  Minimum Inhibitory Concentration (MIC) Staph. aureus ATCC43300: xxx (xxx = 0.1-<1)
[2]
  Minimum Inhibitory Concentration (MIC) S. pneumoniae ATCC 700677: xxx (xxx = 0.1-<1)
[3]
  Minimum Inhibitory Concentration (MIC) E. faecium ATCC51559: x (x = >4)

## CNC(CC(C)C)C(=O)NC1C(=O)NC(CC(N)=O)C(=O)NC2C(=O)NC3C(=O)NC(C(=O)NC(C(=O)NCCCNC(=O)C(CCCCN)NC(=O)c4ccc(C(F)(F)F)cc4)c4cc(O)cc(O)c4-c4cc3ccc4O)C(O)c3ccc(c(Cl)c3)Oc3cc2cc(c3OC2OC(CO)C(O)C(O)C2OC2CC(C)(N)C(O)C(C)O2)Oc2ccc(cc2Cl)C1O (stereo not drawn) [MCC_007408]
[1]
  Minimum Inhibitory Concentration (MIC) Staph. aureus ATCC43300: xxxx (xxxx = 0.01-<0.1)
[2]
  Minimum Inhibitory Concentration (MIC) S. pneumoniae ATCC 700677: xxx (xxx = 0.1-<1)
[3]
  Minimum Inhibitory Concentration (MIC) E. faecium ATCC51559: x (x = >4)

## CCCCCC1CCC(C(=O)NC(CCCCN)C(=O)NC(CCCCN)C(=O)NCCCNC(=O)C2NC(=O)C3NC(=O)C(NC(=O)C4NC(=O)C(CC(N)=O)NC(=O)C(NC(=O)C(CC(C)C)NC)C(O)c5ccc(c(Cl)c5)Oc5cc4cc(c5OC4OC(CO)C(O)C(O)C4OC4CC(C)(N)C(O)C(C)O4)Oc4ccc(cc4Cl)C3O)c3ccc(O)c(c3)-c3c(O)cc(O)cc32)CC1 (stereo not drawn) [MCC_005485]
[1]
  Minimum Inhibitory Concentration (MIC) Staph. aureus ATCC43300: xxxxx (xxxxx = <0.01)
[2]
  Minimum Inhibitory Concentration (MIC) S. pneumoniae ATCC 700677: xxxxx (xxxxx = <0.01)
[3]
  Minimum Inhibitory Concentration (MIC) E. faecium ATCC51559: xx (xx = 1-4)

## CCCCCCCCCCCCC(=O)N[C@@H](CCCCN)C(=O)N[C@@H](CCCCN)C(=O)N[C@@H](CCCCNC(=O)[C@H]1NC(=O)[C@H]2NC(=O)[C@H](NC(=O)[C@@H]3NC(=O)[C@H](CC(N)=O)NC(=O)[C@H](NC(=O)[C@@H](CC(C)C)NC)[C@H](O)c4ccc(c(Cl)c4)Oc4cc3cc(c4O[C@@H]3O[C@H](CO)[C@@H](O)[C@H](O)[C@H]3O[C@H]3C[C@](C)(N)[C@H](O)[C@H](C)O3)Oc3ccc(cc3Cl)[C@H]2O)c2ccc(O)c(c2)-c2c(O)cc(O)cc21)C(=O)O [MCC_000349]
[1]
  Minimum Inhibitory Concentration (MIC) Staph. aureus ATCC43300: xxxxx (xxxxx = <0.01)
[2]
  Minimum Inhibitory Concentration (MIC) S. pneumoniae ATCC 700677: xxxxx (xxxxx = <0.01)
[3]
  Minimum Inhibitory Concentration (MIC) E. faecium ATCC51559: xxx (xxx = 0.1-<1)

## CNC(=O)[C@H](CCCCNC(=O)[C@H]1NC(=O)[C@H]2NC(=O)[C@H](NC(=O)[C@@H]3NC(=O)[C@H](CC(N)=O)NC(=O)[C@H](NC(=O)[C@@H](CC(C)C)NC)[C@H](O)c4ccc(c(Cl)c4)Oc4cc3cc(c4O[C@@H]3O[C@H](CO)[C@@H](O)[C@H](O)[C@H]3O)Oc3ccc(cc3Cl)[C@H]2O)c2ccc(O)c(c2)-c2c(O)cc(O)cc21)NC(=O)[C@H](CCCCN)NC(=O)[C@H](CCCCN)NC(=O)[C@H](CCCCNC(=O)c1ccc(Oc2ccc(F)cc2)cc1)NC(=O)c1ccc(Oc2ccc(F)cc2)cc1 [MCC_000651]
[1]
  Minimum Inhibitory Concentration (MIC) Staph. aureus ATCC43300: xxxxx (xxxxx = <0.01)
[2]
  Minimum Inhibitory Concentration (MIC) S. pneumoniae ATCC 700677: xxxx (xxxx = 0.01-<0.1)
[3]
  Minimum Inhibitory Concentration (MIC) E. faecium ATCC51559: xx (xx = 1-4)

## CCCCCCCCCCCC(=O)N[C@@H](CCCCN)C(=O)N[C@@H](CCCCNC(=O)[C@H]1NC(=O)[C@H]2NC(=O)[C@H](NC(=O)[C@@H]3NC(=O)[C@H](CC(N)=O)NC(=O)[C@H](NC(=O)[C@@H](CC(C)C)NC)[C@H](O)c4ccc(c(Cl)c4)Oc4cc3cc(c4O[C@@H]3O[C@H](CO)[C@@H](O)[C@H](O)[C@H]3O[C@H]3C[C@](C)(N)[C@H](O)[C@H](C)O3)Oc3ccc(cc3Cl)[C@H]2O)c2ccc(O)c(c2)-c2c(O)cc(O)cc21)C(N)=O [MCC_005063]
[1]
  Minimum Inhibitory Concentration (MIC) Staph. aureus ATCC43300: xxxxx (xxxxx = <0.01)
[2]
  Minimum Inhibitory Concentration (MIC) S. pneumoniae ATCC 700677: xxxxx (xxxxx = <0.01)
[3]
  Minimum Inhibitory Concentration (MIC) E. faecium ATCC51559: xx (xx = 1-4)

## CCCCCCCCCC(=O)NC(CCCNC(=N)N)C(=O)NC(CCCCN)C(=O)NCCCNC(=O)C1NC(=O)C2NC(=O)C(NC(=O)C3NC(=O)C(CC(N)=O)NC(=O)C(NC(=O)C(CC(C)C)NC)C(O)c4ccc(c(Cl)c4)Oc4cc3cc(c4OC3OC(CO)C(O)C(O)C3OC3CC(C)(N)C(O)C(C)O3)Oc3ccc(cc3Cl)C2O)c2ccc(O)c(c2)-c2c(O)cc(O)cc21 (stereo not drawn) [MCC_005487]
[1]
  Minimum Inhibitory Concentration (MIC) Staph. aureus ATCC43300: xxxxx (xxxxx = <0.01)
[2]
  Minimum Inhibitory Concentration (MIC) S. pneumoniae ATCC 700677: xxxx (xxxx = 0.01-<0.1)
[3]
  Minimum Inhibitory Concentration (MIC) E. faecium ATCC51559: xxx (xxx = 0.1-<1)
